How the values were obtained:
[1] = pH-sensitivity: fluorescence intensity at various pH conditions; type: physicochemical
Method: The cell culture medium was treated with dilute HCl and NaOH solutions to obtain different solutions with pH of 1.0 to 9.0 for the assay. […] Different dilutions for each pH condition was prepared at concentrations of 0.5, 1.0, 2.0, and 5.0 μM in a 96-well plate.

BV2 microglial cells [2] = experiment: Phagocytosis assay with live cells (IncuCyte live-cell imaging); type: cell-based, mouse
Method: Cells were seeded at 5000 cells per well (200 μL per well) in a 96-well flat bottom plate (Falcon) for approximately 16 hours (overnight). […] Two technical replicates were used for each treatment concentration. The plates were immediately placed in the IncuCyte® S3 Live-Cell Analysis System (Essen BioScience) and four images per well were captured at 30-minute time intervals for 24 hours. The fluorescence intensity, cell confluence, and the integrated fluorescence intensity data was obtained and analyzed using the GraphPad Prism® software.
Flow Cytometry Analysis of BV-2 Microglia Phagocytosis

[3] = system: cortical IBA1+ microglia and GFAP+ astrocytes; experiment: Stereotaxic microinjection in the somatosensory cortex, staining of fixed tissue sections; type: in vivo, mouse
[4] = system: microglia and astrocytes in the cerebral cortex; experiment: In vivo two-photon imaging of the barrel cortex through a cranial window after topical application; parameters: species or system mouse
N9 microglial cells = experiment: Phagocytosis assay with live cells (IncuCyte live-cell imaging); type: cell-based, mouse
Method: (§1) To visualize the phagocytosis of hAβ^pH in live microglial cells, immortalized human microglial clone 3 (HMC3) cells and mouse BV2 and N9 microglial cells were treated with 0.1-5.0 μM doses of hAβ^pH and live-cell images were acquired every 30 minutes for 24 hours on the IncuCyte™ ZOOM Live Content Imaging system (FIGS. 3A-3B). The green channel on the IncuCyte™ ZOOM system allows for excitation and emission wavelengths of 460/524 nm and thus the hAβ^pH reporter was optimal for use on the instrument.
(§2) Cells were seeded at 5000 cells per well (200 μL per well) in a 96-well flat bottom plate (Falcon) for approximately 16 hours (overnight). The lyophilized hAβ^pH conjugate was dissolved in the culture medium for each cell type and filtered using 0.22 μm syringe filter. The adherent cells (BV2, N9, HMC3) were treated with a final concentration of hAβ^pH at 0, 0.1, 0.5, 1.0, 2.0, and 5.0 μM by replacing one-half of the culture medium (100 μL) with 2× concentration. Two technical replicates were used for each treatment concentration. The plates were immediately placed in the IncuCyte® S3 Live-Cell Analysis System (Essen BioScience) and four images per well were captured at 30-minute time intervals for 24 hours. The fluorescence intensity, cell confluence, and the integrated fluorescence intensity data was obtained and analyzed using the GraphPad Prism® software. The total hAβ^pH phagocytosis per concentration was calculated as:
[formula] wherein, Total Integrated Intensity is defined as the total sum of hAβ^pH's fluorescent intensity in the image and Relative Total Integrated Intensity is defined as Total Integrated Intensity (t)—Total Integrated Intensity (t=0) for each concentration. Flow Cytometry Analysis of BV-2 Microglia Phagocytosis

HMC3 cells = experiment: as above; type: cell-based, human
Method: as §1
as §2, with “The plates were immediately placed in the IncuCyte® S3 Live-Cell Analysis System (Essen BioScience) and four images per well were captured at 30-minute time intervals for 24 hours.” left out, “as: […]” for “as:”

BV2 microglial cells [5] = experiment: Flow cytometry analysis of BV-2 microglia phagocytosis; type: cell-based, mouse; conditions: 0.5 and 1.0 μM for 1 hour
Method: BV2 microglial cells were seeded at a density of 250 k cells/well in a 6-well plate for around 14 hr overnight. […] After 2 hours, the plate was brought to the hood, placed on ice to stop phagocytosis, and cell culture medium containing hAβ^pH was aspirated. The cells were washed once with cold PBS. Next, the cells were treated with ice cold PBS with 2 mM EDTA for 2 mins on ice to initiate detachment of the cells from the wells. The cells were fully detached from the wells with very gentle pipetting and transferred into falcon tubes. The cells were centrifuged once at 1400 RPM for 3 mins. The PBS/EDTA supernatant was aspirated out and the cell pellets were re-suspended in FACS buffer (PBS, 25 mM HEPES, 2 mM EDTA, and 2% FBS). Five minutes before analysis of each sample tube, Propidium Iodide (PI) was added to the sample (40 ng/1 mL cell suspension) for staining of live/dead cells. […] The filed were then analyzed on FlowJo V10 software. Gating strategy is indicated in FIG. 4 on the main manuscript.

HMC3, N9, and BV2 cells = experiment: Confocal imaging of intracellular acidic organelles (LysoTracker) in fixed phagocytic microglial cells; type: cell-based, human, mouse; conditions: 5.0 μM, 2-hour time point
Description: To visualize the localization of the hAβ^pH within the microglial cell cytoplasm, the acidic intracellular compartments were labeled with LysoTracker™ DND-99 that stains the lysosomal organelles of the cells. […] It has been recently shown that microglia in vitro recognize and phagocytose Aβ peptides through scavenger receptors,^8 Toll-Like Receptor 2 (TLR2),^17 Cluster of Differentiation 14 (CD14),^18 and Triggering Receptors Expressed on Myeloid Cells 2 (TREM2).^19 Thus, our hAβ^pH reporter serves as a valuable chemical tool in delineating the role of several receptor proteins involved in the Aβ uptake of live and fixed microglial cells using cell staining reagents and by using specific antibodies such as anti-CD14, anti-TREM2, etc. Additionally, the role of inflammation, including the effects of inflammatory cytokines, such as IL-la and TNF-α, on Aβ clearance is not resolved. Thus, our hAβ^pH will be a valuable for studying hAβ^pH phagocytosis under the influence of inflammatory cytokines or small molecule inhibitors.
LysoTracker® Red DND-99 was used for labeling the intracellular organelles of the cells to observe localization of hAβ^pH sensors inside the cells after phagocytosis. […] Fluorescence images of phagocytic microglial cells were captured using 40× and 60× objectives on the Nikon AR-1 MP confocal laser microscope. […]

[6] = system: microglia and astrocytes in rat hippocampal tissue sections; experiment: Phagocytosis assay in rat hippocampal tissue slices (in situ); conditions: IBA1+ and GFAP+ staining
[7] = system: primary immunopanned rat astrocytes; experiment: Uptake by primary immunopanned astrocytes in serum-free conditions; type: cell-based; conditions: fixed, GFAP stained
[8] = system: retinal IBA1+ microglia and GFAP+ astrocytes; experiment: Subretinal injection, in vivo uptake by retinal microglia and astrocytes; conditions: rat
[9] = system: HMC3, BV2, and N9 microglial cells; experiment: Confocal imaging of actin filaments and nuclei in paraformaldehyde-fixed phagocytic microglial cells; type: cell-based, human, mouse; conditions: 5.0 μM for 2 hours, fixed with 4% paraformaldehyde
Method: Fixation of cells and using target protein markers along with hAβ^pH can inform us about the molecular mechanisms involved in microglial phagocytosis with confocal microscopy. To confirm that the hAβ^pH reporter can maintain its fluorescence in fixed cells, HMC3, BV2, and N9 microglial cells were fixed with common cell staining reagents. The cells were treated with 5.0 μM of hAβ^pH for 2 hours and fixed with 4% paraformaldehyde followed by the addition of the phalloidin dye to visualize cellular integrity via the staining of the F-actin filaments (FIG. 5).
For labeling the cells with Phalloidin and DAPI, 20,000 cells/250 μL were plated in 14 mm microwells of the 35 mm glass bottom dishes (MatTek #P35G-1.5-14-C) and kept overnight. The cells were treated with 5.0 μM hAβ^pH for 2 hours on the next day. Then the medium was aspirated, and cells were fixed with 4% paraformaldehyde for 20 mins, and then gently washed once with PBS. Phalloidin-iFluor 555 reagent was diluted at a concentration of 1 μL/mL in PBS and added to the fixed cells for 10 minutes for staining the actin filaments. To label the nuclei, DAPI was diluted at a concentration of 1 μL/mL. […] Fluorescence images of phagocytic microglial cells were captured using 40× and 60× objectives on the Nikon AR-1 MP confocal laser microscope. […]

[10] = Atomic Force Microscopy analysis of aggregation; type: physicochemical; conditions: compared with non-conjugated Aβ1-42
Method: AFM sample preparation: The manufacturer's protocol was followed for sample preparation, image acquiring and analysis.
1 mM Aβ solution was prepared by adding HFIP directly to the vial (0.5 mg Aβ or hAβ^pH or recombinant Aβ(M1-42) in 93.35 μL HFIP). The peptide should be completely dissolved. The solution was incubated at room temperature (RT) for at least 30 min. HFIP was allowed to evaporate in the open tubes overnight in the fume hood or using Argon/Nitrogen gas and then dry down under high vacuum for 1 h without heating to remove any remaining traces of HFIP and moisture. The resulting peptide thin clear film formed at the bottom of the tubes. The tubes containing dried peptides were stored at −20° C. until further use.
Prior to use, tube containing peptide film was allowed to come to RT. Then, 5 mM Aβ DMSO stock was prepared by adding 20 μL fresh dry DMSO to 0.45 mg. Pipette thoroughly, scraping down the sides of the tube near the bottom to ensure complete resuspension of peptide film. Vortex well (˜30 sec) and pulse in a microcentrifuge to collect solution at the bottom of the tube. Sonicate 5 mM Aβ DMSO solution for 10 min. Use this preparation as the starting material for unaggregated Aβ and oligomeric Aβ. For oligomer formation, samples were incubated at 4° C. for 24 hr.
Sample preparation was done with proper sterile technique with sterile media and MilliQ-water. […]

primary mouse microglia = experiment: Phagocytic uptake by primary microglia ex vivo (confocal, flow cytometry); type: cell-based
[11] = P7 mouse, periventricular white matter, 72 h

## RODO-conjugated hAβ^pH: conjugate of the Aβ1-42 peptide with pHrodo-Red (RODO) fluorophore
[1]; 0.5, 1.0, 2.0, and 5.0 μM, FIG. 1C
  pH range of increased fluorescence: 1.0-7.0

## hAβ^pH: pH-dependent fluorescent conjugate of human Aβ1-42 peptide linked to amine-reactive Protonex Green 500, SE (PTXG) fluorophore
BV2 microglial cells [2]; 5.0 μM dose
  intracellular fluorescence during the 18-hour time period: increased intracellular fluorescence
BV2 microglial cells [2]; 1.0 and 2.0 μM doses
  intracellular fluorescence (phagocytosis) over time: gradual increase in intracellular fluorescence
[3]; P7 mouse, periventricular white matter, 24 h
  phagocytic uptake at the 24 h timepoint: phagocytic uptake of Aβ^pH by IBA1^+ microglia and GFAP^+ astrocytes
[3]; [11]
  fluorescence in GFAP+ astrocytes at 72 h: do not show any green fluorescence
  fluorescence in IBA1+ microglia at 72 h: bright green fluorescence
[3]; pia and white matter regions
  fluorescence within microglia vs astrocytes: more Aβ^pH uptake by microglia compared to astrocytes
[4]; mouse barrel cortex, two-photon imaging
  fluorescence in cell somata after topical application: fluorescence increases in cell somata
[4]; perfusion-fixed 1.5 to 3 hours after imaging, cortical slices
  colocalization with IBA1, CD68, and GFAP: most Aβ^pH is taken up by microglia and astrocytes in vivo
N9 microglial cells; 5.0 μM
  intracellular fluorescence beyond 18 hours: began to decrease
  time of peak intracellular green fluorescence: 12 to 18 h
N9 microglial cells; 1.0 and 2.0 μM doses
  intracellular fluorescence (phagocytosis) over time: gradual increase in intracellular fluorescence
[1]; pH 7.4
  fluorescence intensity at the physiological pH of 7.4: did not show an increased fluorescence intensity
HMC3 cells; 5.0 μM
  phagocytosis: increased phagocytosis
HMC3 cells; 1.0 and 2.0 μM doses, followed by gradual decrease
  time period of increased intracellular fluorescence: 1 to 8 h
BV2 microglial cells [5]
  green fluorescence in live (PI-) cells (flow cytometry): green fluorescence is measured
HMC3, N9, and BV2 cells
  co-localization with LysoTracker dye: confirmed the presence of hAβ^pH within the acidic phagosomes
[6]
  phagocytosis in situ: phagocytosed by both microglia and astrocytes in situ
[7]
  phagocytosis by astrocytes: also phagocytose Aβ^pH
[8]; 3 time points, FIG. 11G
  fluorescence in retinal astrocytes (quantification): No fluorescence was detected
[8]; FIG. 11F
  phagocytosis by GFAP+ retinal astrocytes in vivo: phagocytose Aβ^pH in vivo
[9]
  fluorescence retained in fixed cells (confocal, phalloidin): showed green fluorescence
[10]
  ability to aggregate (AFM): aggregate similar to the non-conjugated Aβ
Primary mouse microglia; 0.5, 1.0, and 2.0 μM for 1 hour
  green fluorescence in live (ZV-) cells (flow cytometry): green fluorescence is measured
Primary mouse microglia; defined, reduced-serum media, fixed cells
  phagocytosis ex vivo (confocal, LysoTracker Red): phagocytose Aβ^pH ex vivo
